{"source": "patent US20020143164A1", "about": "“Ras activator nucleic acid molecules, polypeptides and methods of use” (priority 1999, published 2002)", "key": {"GRF4 [1]": {"target": "T1, GRF4 (Homo sapiens, UniProt Q9Y4G8)", "T1 construct": "Flag, HA or myc tags was added to the N-terminus of full length GRF4 using PCR; expressed in transfected cells; host or cells: HEK-293T", "T1 sequence (Q9Y4G8 1-1499)": "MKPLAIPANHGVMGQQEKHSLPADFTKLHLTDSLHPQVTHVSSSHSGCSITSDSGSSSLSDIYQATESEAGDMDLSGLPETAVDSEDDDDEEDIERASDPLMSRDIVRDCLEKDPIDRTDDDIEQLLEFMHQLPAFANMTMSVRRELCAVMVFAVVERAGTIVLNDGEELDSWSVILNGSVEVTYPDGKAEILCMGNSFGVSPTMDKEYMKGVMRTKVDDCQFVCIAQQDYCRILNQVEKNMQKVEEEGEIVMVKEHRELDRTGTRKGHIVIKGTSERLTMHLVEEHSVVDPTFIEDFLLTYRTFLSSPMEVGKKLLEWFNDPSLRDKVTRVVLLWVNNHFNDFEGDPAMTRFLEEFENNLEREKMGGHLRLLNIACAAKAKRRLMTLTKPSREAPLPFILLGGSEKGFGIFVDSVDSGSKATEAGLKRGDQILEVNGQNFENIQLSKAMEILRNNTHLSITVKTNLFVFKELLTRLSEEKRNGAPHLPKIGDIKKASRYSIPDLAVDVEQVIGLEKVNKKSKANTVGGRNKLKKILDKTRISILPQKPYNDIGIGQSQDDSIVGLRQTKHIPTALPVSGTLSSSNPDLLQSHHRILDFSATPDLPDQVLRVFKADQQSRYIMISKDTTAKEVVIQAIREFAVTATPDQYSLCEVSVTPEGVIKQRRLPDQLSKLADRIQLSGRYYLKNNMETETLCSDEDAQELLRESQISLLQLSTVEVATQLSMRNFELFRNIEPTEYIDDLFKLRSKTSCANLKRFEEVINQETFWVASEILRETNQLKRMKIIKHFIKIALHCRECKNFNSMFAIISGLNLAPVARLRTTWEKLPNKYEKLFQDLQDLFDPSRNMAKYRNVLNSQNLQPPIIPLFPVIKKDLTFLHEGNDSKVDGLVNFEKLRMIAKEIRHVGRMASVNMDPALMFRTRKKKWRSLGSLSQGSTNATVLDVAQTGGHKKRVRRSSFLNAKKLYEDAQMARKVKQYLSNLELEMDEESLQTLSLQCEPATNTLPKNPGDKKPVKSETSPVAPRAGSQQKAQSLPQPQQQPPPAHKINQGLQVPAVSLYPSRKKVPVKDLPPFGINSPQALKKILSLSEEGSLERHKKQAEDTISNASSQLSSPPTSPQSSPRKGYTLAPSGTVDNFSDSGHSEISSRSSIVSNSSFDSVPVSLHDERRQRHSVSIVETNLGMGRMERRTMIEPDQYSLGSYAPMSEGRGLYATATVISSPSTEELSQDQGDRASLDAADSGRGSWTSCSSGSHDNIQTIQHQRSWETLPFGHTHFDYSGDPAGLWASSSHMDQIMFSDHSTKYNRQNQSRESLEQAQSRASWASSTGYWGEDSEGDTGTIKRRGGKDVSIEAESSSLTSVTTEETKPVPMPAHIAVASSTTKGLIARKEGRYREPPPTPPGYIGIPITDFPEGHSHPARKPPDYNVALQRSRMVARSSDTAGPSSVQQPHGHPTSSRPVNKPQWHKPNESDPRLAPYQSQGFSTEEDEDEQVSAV", "experiment": "Ras activation assay in living cells (GST-Raf1-RBD pull-down), treatment of GRF4-transfected cells", "type": "cell-based", "conditions": "for Effect of PKG inhibitor on 8-Br-cGMP enhanced activation of Ras by GRF4: H-8 5 μM or Rp-8-Br-cGMPS 25 μM, then 8-Br-cGMP 500 μM; for Effect of PKG inhibitor on 8-Br-cGMP enhanced activation of Ras by GRF4 / cAMP stimulation of GRF4-mediated activation of Ras in the presence of PKA inhibitor: 30 min; for cAMP stimulation of GRF4-mediated activation of Ras in the presence of PKA inhibitor: H-89 10 μM or Rp-8-Br-cAMPS 50 μM, then 8-Br-cAMP 500 μM; for GRF4 stimulation of Ras activation enhanced following treatment / Enhancement of activation of Ras by GRF4 by membrane permeable cNMP analogue: HEK-293T cells transfected with Flag-GRF4; for Enhancement of activation of Ras by GRF4 by membrane permeable cNMP analogue: analogue 500 μM", "protocol": "Cells were then lysed and lysate incubated with immobilized Ras binding domain (RBD) of Raf1 (GST-Raf1-RBD), which binds activated (GTP-bound) Ras. Co-precipitated activated ras was then detected with anti Ras antibodies (Quality Biotech) (upper panel). Lower 2 panels depict the amounts of total endogenous Ras and of the transfected GRF4 (detected with anti Ras and anti Flag antibodies, respectively).\nCells were transfected (or not) with Flag-GRF4 and serum-starved overnight as in (a) above, pre-treated (or not) with the PKG inhibitors H8 (5 μM) or Rp-cGMPS (25 μM) and then treated (or not) with the cGMP analogue 8-Br-cGMP (500 μM), as in (a) above. Activated Ras was then precipitated with GST-Raf1-RBD (upper panel), as in (a). Lower panels show total endogenous Ras and GRF4 expressed in the cells.\nParallel treatments with 8-Br-cAMP or 8-Br-cGMP were used as positive controls. Lysates of treated cells were then incubated with GST-Raf1-RBD to precipitate activated Ras, and immunoblotted with anti Ras antibodies, as above (upper panel). Lower panels are as in (a) and (b) above.\nThe membrane permeable 8-Br-cAMP and 8Br-cGMP analogs (Sigma) were used at a concenreation of 500 μM for 15 min. Inhibitors of PKA: H-89 and Rp-8-Br-cAMPS (CalBiochem) were used at 10 μM and 50 μM, respectively, for 30 min. Inhibitors of PKG: H-8 and Rp-8-Br-cGMPS (CalBiochem) were used at 5 μM and 25 μM, respectively, for 30 min. Activators of Adenylyl Cyclase, Forskolin (Sigma), and activator of Guanylyl Cyclase, YC-1 (CalBiochem), were used at 50 μM and 100 μM, respectively, for 15 min.\n(§1) HEK-293T cells were transfected as above, serum starved overnight and then subjected to various treatments, as described in the text. Cells were lysed with lysis buffer (25 mM Hepes, pH 7.5, 150 mM NaCl, 1% NP-40, 0.25% Na deoxycholate, 10% glycerol, 25 mM NaF, 10 mM MgCl2, 1 mM EDTA, 1 mM NaVO4, […]) and the level of Ras.GTP or Rap. GTP in the lysates was determined using activation specific probes as described. Briefly, to determined the levels of active Ras (Ras-GTP) in cell, sepharose-bound GST fusion protein of the Ras-binding domain (RBD) of Raf-1 (GST-Raf1-RBD; Upstate Biotechnology Inc.) was used to precipitate Ras-GTP from cell lysates, and the amount of Ras-GTP determined by immunoblotting with anti Ras antibodies (Quality Biotech). Similarly, to determine the level of Rap1-GTP in cell lysates, sepharose-bound GST fusion proteins of the Rap1-binding domain of RaIGDS (GST-RaIGDS-RBD) were used to precipitate Rap1-GTP, which was then detected on a Western blot using anti-Rap1 antibodies (Transduction Lab)."}, "Rap1": {"system": "Rap1", "experiment": "Rap1 activation assay in living cells (GST-RalGDS-RBD pull-down)", "type": "cell-based, human", "conditions": "HEK-293T cells expressing GRF4", "protocol": "as §1"}, "GRF4 [2]": {"target": "T1, GRF4", "experiment": "Activation of Ras and MAPK by cNMP analogues in GRF4-transfected HEK-293T cells", "type": "cell-based", "conditions": "HEK-293T cells transfected with GRF4; not in untransfected cells", "protocol": "The small GTPase Ras controls the MAPK pathway and exerts its effects on cellular processes primarily through this pathway. MAPK is a downstream kinase of Ras and thus, Ras activation leads to MAPK activation (FIG. 6A). Therefore, we show the GRF4 effects on MAPK activation using assays in which levels of active MAPK in cells is determined using antibodies recognizing phosphorylated (active) MAPK."}, "GRF4-cNMP-BD": {"target": "T2, GRF4-cNMP-BD (Homo sapiens, UniProt Q9Y4G8)", "T2 construct": "The GST-GRF4-cNMP-BD (residue 101-303); made in house", "T2 sequence (Q9Y4G8 101-303)": "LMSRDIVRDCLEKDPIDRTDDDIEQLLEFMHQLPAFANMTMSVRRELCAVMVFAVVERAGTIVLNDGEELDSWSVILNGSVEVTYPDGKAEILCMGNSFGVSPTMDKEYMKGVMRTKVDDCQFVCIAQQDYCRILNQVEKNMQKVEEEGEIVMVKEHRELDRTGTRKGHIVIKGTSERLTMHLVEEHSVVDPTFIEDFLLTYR", "experiment": "cAMP-agarose binding assay", "conditions": "data not shown", "protocol": "Right and left panels in (b) represent two separate experiments.\nFollowing extensive washes in HNTG (20 mM Hepes, pH 7.5, 150 mM NaCl, 0.1% Triton ×100, 10% Glycerol) proteins were eluted off beads with sample buffer, separated on SDS-PAGE and immunoblotted with either anti GST antibodies for the in vitro binding experiments, or with anti GRF4 antibodies for the pull down experiments."}}}
{"smiles": "Nc1nc2c(nc(Br)n2[C@@H]2O[C@@H]3COP(O)(=S)O[C@H]3[C@H]2O)c(=O)[nH]1", "note": "(single isomer, unassigned) [RP8-Br-cGMPS, Guanosine 3′,5′-cyclic monophosphorothioate, 8-Bromo-, Rp-isomer]", "values": [{"measurement": "Effect of PKG inhibitor on 8-Br-cGMP enhanced activation of Ras by GRF4", "setting": "GRF4 [1]", "value": "lack of effect"}]}
{"smiles": "Nc1ncnc2c1nc(Br)n2C1OC2COP(O)(=S)OC2C1O", "note": "(single isomer, unassigned) [Rp8-Br-cAMPS, Adenosine 3′,5′-cyclic monophosphorothioate, 8-Bromo-, Rp-isomer]", "values": [{"measurement": "cAMP stimulation of GRF4-mediated activation of Ras in the presence of PKA inhibitor", "setting": "GRF4 [1]", "value": "still able to stimulate"}]}
{"smiles": "Nc1ncnc2c1nc(Br)n2[C@@H]1O[C@@H]2COP(=O)(O)O[C@H]2[C@H]1O", "note": "[8-Br-cAMP]", "values": [{"measurement": "GRF4 stimulation of Ras activation enhanced following treatment", "setting": "GRF4 [1]; 8-Br-cAMP 500 μM 15 min plus H-89 10 μM 30 min pre-treatment", "value": 3.5, "unit": "fold"}, {"measurement": "GRF4 stimulation of Ras activation enhanced following treatment", "setting": "GRF4 [1]; 8-Br-cAMP 500 μM, 15 min", "value": 3.9, "unit": "fold"}, {"measurement": "Enhancement of activation of Ras by GRF4 by membrane permeable cNMP analogue", "setting": "GRF4 [1]; 15 min", "value": "greatly enhanced"}, {"measurement": "Stimulation of GRF4-mediated activation of Rap1", "setting": "Rap1", "value": "not stimulated"}, {"measurement": "Activation of Ras and of MAPK in GRF4-expressing cells", "setting": "GRF4 [2]", "value": "leads to activation"}]}
{"smiles": "Nc1nc2c(nc(Br)n2[C@@H]2O[C@@H]3COP(=O)(O)O[C@H]3[C@H]2O)c(=O)[nH]1", "note": "[8-Br-cGMP]", "values": [{"measurement": "Enhancement of activation of Ras by GRF4 by membrane permeable cNMP analogue", "setting": "GRF4 [1]; 15 min", "value": "greatly enhance"}, {"measurement": "Activation of Ras and of MAPK in GRF4-expressing cells", "setting": "GRF4 [2]", "value": "leads to activation"}]}
{"smiles": "CNCCNS(=O)(=O)c1cccc2cnccc12", "note": "[H-8, N-[2-(methylamino)ethyl]-5-isoquinolinesulfonamide]", "values": [{"measurement": "Effect of PKG inhibitor on 8-Br-cGMP enhanced activation of Ras by GRF4", "setting": "GRF4 [1]", "value": "lack of effect"}]}
{"smiles": "O=S(=O)(NCCNCC=Cc1ccc(Br)cc1)c1cccc2cnccc12", "note": "[H-89, N-[2-((Pbromocinnamyi)amino)ethyl]-5-isoquinoiinesulfonamide]", "values": [{"measurement": "cAMP stimulation of GRF4-mediated activation of Ras in the presence of PKA inhibitor", "setting": "GRF4 [1]", "value": "still able to stimulate"}]}
{"smiles": "Nc1nc2c(ncn2[C@@H]2O[C@@H]3COP(=O)(O)O[C@H]3[C@H]2O)c(=O)[nH]1", "note": "[cGMP, reference compound]", "values": [{"measurement": "Competition of cAMP binding to the GRF4-cNMP-BD", "setting": "GRF4-cNMP-BD", "value": "effectively competed"}]}
